One data set relates to MCF7. As to the kind of experiment: Antiproliferative activity against human MCF7 cells assessed as inhibition of cell viability incubated for 48 hrs by CCK8 method. The data set is classed as functional, cell-based. The following applies: MCF7, 48 h. In general terms: Tetrazolium dyes change colour on reduction, which living cells bring about.
Another data set deals with HeLa. As to the kind of experiment: Antiproliferative activity against human HeLa cells assessed as inhibition of cell viability incubated for 48 hrs by CCK8 method. In kind it is functional, cell-based.
The next data set deals with CNE-2. As to the kind of experiment: Antiproliferative activity against human CNE-2 cells assessed as inhibition of cell viability incubated for 48 hrs by CCK8 method. In kind it is functional, cell-based. The following applies: CNE-2, 48 h.
The test system of another data set is MDA-MB-231. As to the kind of experiment: Antiproliferative activity against human MDA-MB-231 cells assessed as inhibition of cell viability incubated for 48 hrs by CCK8 method. The data set is classed as functional, cell-based. Particulars: MDA-MB-231, 48 h.
The next data set deals with A549. As to the kind of experiment: Antiproliferative activity against human A549 cells assessed as inhibition of cell viability incubated for 48 hrs by CCK8 method. The data set is classed as functional, cell-based. Particulars: A549, 48 h.
In another data set the test system is HCT-116. As to the kind of experiment: Antiproliferative activity against human HCT-116 cells assessed as inhibition of cell viability incubated for 48 hrs by CCK8 method. The data set is classed as functional, cell-based. The following applies: HCT-116, 48 h.
Data set [1] deals with T1, Cyclin-dependent kinase 9 (Homo sapiens, UniProt P50750). The data set can be described thus: Inhibition of CDK9 (unknown origin) incubated for 10 mins.
The subject of a further data set is HepG2. As to the kind of experiment: Antiproliferative activity against human HepG2 cells assessed as inhibition of cell viability incubated for 48 hrs by CCK8 method. The data set is classed as functional, cell-based. Particulars: HepG2, 48 h.
Data set [2] deals with MOLM-13. The data set can be described thus: Antiproliferative activity against human MOLM-13 cells assessed as inhibition of cell viability incubated for 48 hrs by CCK8 method. The data set is classed as functional, cell-based. The following applies: MOLM-13, 48 h.
The target of data set [3] is T1, Cyclin-dependent kinase 9. The data set can be described thus: Inhibition of CDK9 (unknown origin) at 20 uM incubated for 10 mins relative to control.
Data set [4] is described as follows: Stability in human plasma assessed as compound remaining measured upto 4 hrs by HPLC analysis. The data set is classed as ADME, cell-free. The following applies: read-out: Stability.
Data set [5] in a line: Stability of the compound in artificial intestinal fluid assessed as compound remaining measured upto 8 hrs by HPLC analysis. Particulars: read-out: Stability. In kind it is ADME.
The nature of data set [6]: Stability of the compound in artificial gastric fluid assessed as compound remaining measured upto 8 hrs by HPLC analysis. In kind it is ADME. Particulars: read-out: Stability.
A short description of data set [7]: Stability in rat liver microsomes assessed as compound remaining measured upto 3 hrs by HPLC analysis. In kind it is ADME, Microsome. Particulars: read-out: Stability. (Liver microsomes are vesicles of endoplasmic reticulum, rich in cytochrome P450 enzymes.)
The test system of data set [8] is MOLM-13. As to the kind of experiment: Induction of apoptosis in human MOLM-13 cells assessed as early apoptotic cells at 10 uM incubated for 24 hrs by Annexin V-FITC and propidium iodide staining based flow cytometry analysis (reference value: 2.86%). In kind it is functional. (A flow cytometer gives signals particle by particle.)
The subject of data set [9] is MOLM-13. The data set can be described thus: Induction of apoptosis in human MOLM-13 cells assessed as late apoptotic cells at 10 uM incubated for 24 hrs by Annexin V-FITC and propidium iodide staining based flow cytometry analysis (reference value: 3.65%). In kind it is functional.
Data set [10] deals with MOLM-13. As to the kind of experiment: Induction of apoptosis in human MOLM-13 cells assessed as viable cells at 10 uM incubated for 24 hrs by Annexin V-FITC and propidium iodide staining based flow cytometry analysis (reference value: 92.7%). The data set is classed as functional. The following applies: read-out: Activity.
In data set [11] the test system is MOLM-13. The data set can be described thus: Induction of apoptosis in human MOLM-13 cells assessed as necrotic cells at 10 uM incubated for 24 hrs by Annexin V-FITC and propidium iodide staining based flow cytometry analysis (reference value: 0.84%). In kind it is functional.
In data set [12] the target is T1, Cyclin-dependent kinase 9. As to the kind of experiment: Inhibition of CDK9 in human MOLM-13 cells assessed as decrease in Mcl-1 expression incubated for 24 hrs by Western blot analysis. The following applies: dose 10-25 µM. The data set is classed as cell-based.
Data set [13] relates to MOLM-13. As to the kind of experiment: Induction of apoptosis in human MOLM-13 cells assessed as late apoptotic cells at 2.5 uM incubated for 24 hrs by Annexin V-FITC and propidium iodide staining based flow cytometry analysis (reference value: 3.65%). The data set is classed as functional.
Data set [14] deals with MOLM-13. As to the kind of experiment: Induction of apoptosis in human MOLM-13 cells assessed as viable cells at 2.5 uM incubated for 24 hrs by Annexin V-FITC and propidium iodide staining based flow cytometry analysis (reference value: 92.7%). The data set is classed as functional. The following applies: read-out: Activity.
The test system of data set [15] is MOLM-13. As to the kind of experiment: Induction of apoptosis in human MOLM-13 cells assessed as necrotic cells at 5 uM incubated for 24 hrs by Annexin V-FITC and propidium iodide staining based flow cytometry analysis (reference value: 0.84%). The data set is classed as functional.
Data set [16] concerns the target T1, Cyclin-dependent kinase 9. As to the kind of experiment: Inhibition of CDK9 in human MOLM-13 cells assessed as increase in cleaved PARP level at 10 to 25 uM incubated for 24 hrs by Western blot analysis. The data set is classed as cell-based. Particulars: dose 10-25 µM.
Data set [17] deals with MOLM-13. As to the kind of experiment: Induction of apoptosis in human MOLM-13 cells assessed as early apoptotic cells at 2.5 uM incubated for 24 hrs by Annexin V-FITC and propidium iodide staining based flow cytometry analysis (reference value: 2.86%). In kind it is functional.
In data set [18] the test system is MOLM-13. The data set can be described thus: Induction of apoptosis in human MOLM-13 cells assessed as viable cells at 5 uM incubated for 24 hrs by Annexin V-FITC and propidium iodide staining based flow cytometry analysis (reference value: 92.7%). In kind it is functional. Particulars: read-out: Activity.
For data set [19], the target named is T1, Cyclin-dependent kinase 9. As to the kind of experiment: Inhibition of CDK9 in human MOLM-13 cells assessed as suppression of p-RNAP II CTD (Ser2 residue) phosphorylation incubated for 24 hrs by Western blot analysis. In kind it is cell-based. The following applies: dose 10-25 µM.
In data set [20] the test system is MOLM-13. As to the kind of experiment: Induction of apoptosis in human MOLM-13 cells assessed as early apoptotic cells at 5 uM incubated for 24 hrs by Annexin V-FITC and propidium iodide staining based flow cytometry analysis (reference value: 2.86%). In kind it is functional.
The test system of data set [21] is MOLM-13. The data set can be described thus: Induction of apoptosis in human MOLM-13 cells assessed as late apoptotic cells at 5 uM incubated for 24 hrs by Annexin V-FITC and propidium iodide staining based flow cytometry analysis (reference value: 3.65%). The data set is classed as functional.
The subject of data set [22] is MOLM-13. The data set can be described thus: Induction of apoptosis in human MOLM-13 cells assessed as necrotic cells at 2.5 uM incubated for 24 hrs by Annexin V-FITC and propidium iodide staining based flow cytometry analysis (reference value: 0.84%). In kind it is functional.
Data set [23] has as its system MOLM-13. As to the kind of experiment: Induction of apoptosis in human MOLM-13 cells incubated for 24 hrs by Annexin V-FITC and propidium iodide staining based flow cytometry analysis. In kind it is functional, cell-based. Particulars: dose 2.5-10 µM.

The source made the active and inactive calls. No cut-off for these calls is given here.

T1 sequence (P50750 whole entry): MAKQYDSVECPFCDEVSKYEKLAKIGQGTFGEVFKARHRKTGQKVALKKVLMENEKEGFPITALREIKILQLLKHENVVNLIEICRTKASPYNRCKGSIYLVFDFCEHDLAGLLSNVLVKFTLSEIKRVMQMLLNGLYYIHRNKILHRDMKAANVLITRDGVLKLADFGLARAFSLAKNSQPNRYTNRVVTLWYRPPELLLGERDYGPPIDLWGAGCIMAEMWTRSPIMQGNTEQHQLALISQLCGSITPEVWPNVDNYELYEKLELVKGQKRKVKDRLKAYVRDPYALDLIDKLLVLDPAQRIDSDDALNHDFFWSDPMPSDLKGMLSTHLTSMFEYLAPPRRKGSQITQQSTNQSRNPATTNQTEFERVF

`CCNc1nc(N)nc(-c2cc(Cl)ccc2O)n1`: the IC50 (in general, the concentration that inhibits the measured activity by half) in the data set with MCF7 was 18.9 µM; with HeLa, 7.38 µM; in the data set with CNE-2 it was 30.4 µM; in the data set on MDA-MB-231, 21.2 µM; in the data set on A549 it was greater than 50 µM; with HCT-116, 26.6 µM. In addition, the IC50 in data set [1] worked out at 0.335 µM; in the data set with HepG2, 49.2 µM; with MOLM-13 [2], 15.2 µM. The inhibition (as a rule, the percentage by which the read-out fell short of the control) in [3] is 93.7%.
Take `Nc1nc(NCCc2ccccc2)nc(-c2cc(Cl)ccc2O)n1`: the IC50 in the data set with MCF7 is 29 µM; in the data set on HeLa, 25.1 µM; with CNE-2, greater than 50 µM; in the data set with MDA-MB-231, 14.5 µM; in the data set on A549, 28.2 µM; with HCT-116, greater than 50 µM. The IC50 in [1] amounted to 0.504 µM; in the data set with HepG2, 29 µM; in the data set with MOLM-13 [2] it was 4.58 µM. The remaining at 4 h in [4] was greater than 90%. Besides, the remaining at 8 h in data set [5] and in data set [6] was greater than 90% in each case. For the same compound, the remaining at 3 h in [7] is greater than 90%. Moreover, the inhibition in data set [3] is 92.2%.
For the compound `O=C(NCCc1c[nH]c2ccc(Cl)cc12)c1cc(-c2cccnc2)n[nH]1`, the IC50 is 20.9 µM with MCF7; 29.4 µM in the data set on HeLa; 17.1 µM in the data set with CNE-2; 28.2 µM in the data set on MDA-MB-231; greater than 50 µM with A549; 15.6 µM in the data set with HCT-116. Moreover, the concentration for half-maximal inhibition (IC50) with HepG2 came to 19.8 µM; in the data set with MOLM-13 [2], 2.52 µM. The compound further yielded an inhibition in data set [3] of 22.7%.
In the case of `O=C(Cn1cc(Br)c(=O)n(CC(=O)Nc2ccc(Br)cn2)c1=O)Nc1ccc(Br)cn1`, the IC50 with MCF7 is 6.14 µM; in the data set with HeLa, 6.61 µM; in the data set with CNE-2 it was 28.3 µM; in the data set with MDA-MB-231, 8.34 µM; with A549 it was 15.3 µM; with HCT-116 it was 3.22 µM. For the same compound, the IC50 in [1] was 0.219 µM; in the data set with HepG2 it was greater than 50 µM; with MOLM-13 [2] it was 11.8 µM. For the same compound, the remaining at 4 h in [4] is greater than 90%. For the same compound, the remaining at 8 h in data set [5] and in [6] was greater than 90% throughout. Further, the remaining at 3 h in data set [7] is greater than 90%. The compound also came in with an inhibition in data set [3] of 76.4%.
Consider `CN1CC[C@H](c2c(O)cc(O)c3c(=O)cc(-c4ccccc4Cl)oc23)[C@H](O)C1` [ALVOCIDIB], for which the IC50 in the data set with MCF7 was 0.71 µM; with HeLa, 0.15 µM; in the data set on CNE-2, 0.12 µM; in the data set with MDA-MB-231, 0.06 µM; with A549, 0.1 µM; with HCT-116, 0.03 µM. In addition, the IC50 with HepG2 turned out to be 0.56 µM; in the data set with MOLM-13 [2], 0.07 µM. In addition, the results for the Activity in the data set with MOLM-13 [8], in the data set on MOLM-13 [9] and in the data set on MOLM-13 [11] were 25.5%, 7.81% and 22.3%, respectively. For the same compound, in the data set with MOLM-13 [10], the viability at 10 µM was 44.5%.
Turning to `Nc1nc(Nc2ccccc2)nc(-c2cc(Cl)ccc2O)n1`, the IC50 in the data set on MCF7 is 23.5 µM; with HeLa, 2.53 µM; in the data set on CNE-2 it was 34.5 µM; in the data set on MDA-MB-231, 11.7 µM; in the data set on A549, greater than 50 µM; in the data set on HCT-116, 22.2 µM. Moreover, the IC50 in data set [1] is 0.295 µM; in the data set with HepG2 it was greater than 50 µM; with MOLM-13 [2], 3.92 µM. Besides, the inhibition entry was “Dose-Dependent Effect” in data set [12], “Dose-Dependent Effect” in data set [19] and 88.4% in [3]. Besides, the Activity with MOLM-13 [8] amounted to 6.13%; in the data set on MOLM-13 [13], 3.88%; in the data set on MOLM-13 [9], 5.43%; in the data set on MOLM-13 [15], 1.12%; with MOLM-13 [17], 3.2%; in the data set on MOLM-13 [20], 3.97%. The Activity in the data set with MOLM-13 [11] was 1.38%; with MOLM-13 [21], 3.96%; in the data set on MOLM-13 [22], 0.77%; in the data set on MOLM-13 [23] it was “Dose-Dependent Effect”. Besides, in the data set with MOLM-13 [14], the viability at 2.5 µM came out at 92.1%. In the data set with MOLM-13 [10], the viability at 10 µM came out at 87.1%. Further, the inhibition result in data set [16] is “Active”. For the same compound, the viability at 5 µM in the data set with MOLM-13 [18] is 90.9%. The remaining at 4 h in data set [4] was greater than 90%. Further, the remaining at 8 h in [5] and in data set [6] was greater than 90% each time. Also, in [7], the remaining at 3 h was greater than 90%.
As to `CCCCNc1nc(N)nc(-c2cc(Cl)ccc2O)n1`, the IC50 stood at 11.3 µM in the data set on MCF7; 13.7 µM with HeLa; 17 µM in the data set with CNE-2; 16 µM with MDA-MB-231; 19.2 µM with A549; 27.2 µM with HCT-116. The IC50 in data set [1] was 0.214 µM; in the data set with HepG2, 40.9 µM; with MOLM-13 [2] it was 13.5 µM. This compound also yielded an inhibition in [3] of 93.6%.

Source of the values: ChEMBL document CHEMBL5360523, “Ligand- and structure-based identification of novel CDK9 inhibitors for the potential treatment of leukemia” (Bioorg Med Chem, 2022).
